Measured values taken from US20230114177A1, “NOVEL DEUTERIUM-SUBSTITUTED PYRIMIDINE DERIVATIVE AND PHARMACEUTICAL COMPOSITION COMPRISING SAME” (ONCOBIX CO., LTD., priority 2019, published 2023).

What was measured:
[1] = Pharmacokinetic evaluation in rats; format: in vivo; conditions: single dose; for absolute absorption rate: compared with hydrogen-substituted reference substance (FIGS. 1 to 4)
Description: Pharmacokinetic tests were carried out in rats as follows for the compounds obtained from Examples 1 and 2 above and the compound of Example 2 in which deuterium was substituted with hydrogen (hydrogen-substituted reference substance).
After the test substances were prepared to 2.5 or 5 mg/mL using WFI (water for injection), the rats were administered as a single dose at a prescribed dose (10 mL/kg), and blood was collected at a predetermined time (0, 0.25, 0.5, 1, 2, 4, 6, 8, 10, 24 hours), and then plasma was separated. Analysis of the drug was carried out using HPLC (XBridge column C18, Waters, mobile phase of 0.1% formic acid:acetonitrile (30:70, %/%)) and MS/MS (ESI positive, MRM), and concentrations of 5, 50, 100, 500, 1,000, and 5,000 ng/ml were prepared and measured by mixing rat blank plasma and each commercial standard solution at a ratio of 9:1. In addition, QC sample preparations were prepared at concentrations of 100, 750, and 2,500 ng/ml by mixing rat blank plasma and QC standard solution in a 9:1 ratio. As for the pretreatment method, 100 μl of the plasma sample was transferred to a centrifuge tube, and 10 μl of the internal standard solution and 300 μl of methanol were added thereto, and then mixed for about 30 seconds. The tube was centrifuged for about 5 minutes at a rotation speed of 12,000 rpm (4° C.) using a centrifuge, and the supernatant was taken, transferred to an LC vial and then injected into the device. Thereafter, the concentration of the drug in rat plasma was quantified by applying the previously verified assay. For pharmacokinetic parameters, WinNonlin 5.2 (Pharsight, USA) program was used, and AUC0-t, AUC0-∞, Cmax, Tmax, and t1/2 were calculated by noncompartment modeling (best fit). Pharmacokinetic parameter results were expressed as mean and standard deviation (SD), and statistically processed using the SPSS program (Statistical Package for the Social Sciences, 10.0K, USA).

BaF3 (de119/T790M/C797S) = test: Measurement of inhibitory effect on cancer cell growth (GI50); format: cell-based; conditions: for GI50: Mus musculus, concentration to inhibit 50% of cell growth, BaF3 cells with EGFR de119/T790M/C797S; for activity against cancer cell lines expressing the C797S mutant epidermal growth factor receptor: summary in words of Table 1

## [2H]C([2H])([2H])N(c1ccccc1Nc1nc(Nc2ccc(N3CCC(N4CCN(C)CC4)CC3)cc2OC)ncc1Cl)S(C)(=O)=O [Example 2]
[1]
  relative absorption rate compared to the hydrogen-substituted reference substance: 111.4%
  absolute absorption rate: equivalent to or greater than the control drug
BaF3 (de119/T790M/C797S)
  GI50: ≤ 500 nM
  activity against cancer cell lines expressing the C797S mutant epidermal growth factor receptor: excellent activity

## [2H]C([2H])([2H])N1CCN(C2CCN(c3ccc(Nc4ncc(Cl)c(Nc5ccccc5N(C)S(C)(=O)=O)n4)c(OC)c3)CC2)CC1 [Example 1, N-(2-((5-Chloro-2-((2-Methoxy-4-(4-(4-(Methyl-d3)Piperazin-1-Yl)Piperidin-1-Yl)Phenyl)Amino)Pyrimidin-4-Yl)Amino)Phenyl)-N-Methylmethanesulfonamide]
[1]
  absolute absorption rate: equivalent to or greater than the control drug
BaF3 (de119/T790M/C797S)
  GI50: ≤ 500 nM
  activity against cancer cell lines expressing the C797S mutant epidermal growth factor receptor: excellent activity

## C=CC(=O)Nc1cc(Nc2nccc(-c3cn(C)c4ccccc34)n2)c(OC)cc1N(C)CCN(C)C [Osimertinib, osimertinib, reference compound]
BaF3 (de119/T790M/C797S)
  GI50: > 1000 nM
  activity against cancer cell lines expressing the C797S mutant epidermal growth factor receptor: poor activity
